From paper PMC10141580, “Cyclic Dichalcogenides Extend the Reach of Bioreductive Prodrugs to Harness Thiol/Disulfide Oxidoreductases: Applications to seco-Duocarmycins Targeting the Thioredoxin System” (ACS Central Science, 2023)
Like-named read-outs stand apart in the source and are kept apart here.

How the values were obtained:
A549 cells = test: Resazurin cytotoxicity assay, A549, 72 h; conditions: read-out: IC50(nM): A549
Method: We used A549 lung cancer and HeLa cervical cancer cell lines for initial screening of the prodrugs.
Fi gure S9: Cell ular resazurin-based cytotoxi ci ty as s a y.
Dose -response curves were calculated from at least 27 incremental single concentrations over a range
of at least three log units. Individual experiments with annotated experiment numbers are shown for each prodrug

[1] = test system: NCI-60 standardized human tumor cell line panel; test: cells; format: cell-based; conditions: for NCI-60 screening: Log(GI50): log10 of GI50 in M; for NCI-60 screening: Log(RedIndex): log10 reductive index vs P-CC60

## COc1cc2cc(C(=O)N3CC(CCl)c4c3cc(OC(=O)N3CCN(C)C5CSSCC53)c3ccccc43)[nH]c2c(OC)c1OC (mixture of isomers) [Me-SS66T-CBI-TMI]
A549 cells
  IC50: 5.9 nM
[1]; 786-0 (RE) cell line
  NCI-60 screening: Log(GI50): -7.79
  NCI-60 screening: Log(RedIndex): 2.03
[1]; 786-0 (RE) cell line, read-out: NCI-60 screening: Raw GI50
  GI50: 16 nM
[1]; 786-0, read-out: GI50
  GI50: 16 nM
[1]; A498 (RE) cell line
  NCI-60 screening: Log(GI50): -6.9
  NCI-60 screening: Log(RedIndex): 1.34
[1]; A498 (RE) cell line, read-out: NCI-60 screening: Raw GI50
  GI50: 130 nM
[1]; A498, read-out: GI50
  GI50: 130 nM
[1]; A549/ATCC, read-out: GI50
  GI50: 12 nM
[1]; ACHN (RE) cell line
  NCI-60 screening: Log(GI50): -8.02
  NCI-60 screening: Log(RedIndex): 1.71
[1]; ACHN (RE) cell line, read-out: NCI-60 screening: Raw GI50
  GI50: 9.5 nM
[1]; ACHN, read-out: GI50
  GI50: 9.5 nM
[1]; BT-549, read-out: GI50
  GI50: 15 nM
[1]; CAKI-1 (RE) cell line
  NCI-60 screening: Log(GI50): -7.56
  NCI-60 screening: Log(RedIndex): 1.74
[1]; CAKI-1 (RE) cell line, read-out: NCI-60 screening: Raw GI50
  GI50: 27 nM
[1]; CAKI-1, read-out: GI50
  GI50: 27 nM
[1]; CCRF-CEM, read-out: GI50
  GI50: 26 nM
[1]; COLO 205, read-out: GI50
  GI50: 49 nM
[1]; DU-145 (PR) cell line
  NCI-60 screening: Log(GI50): -8.46
  NCI-60 screening: Log(RedIndex): 2.12
[1]; DU-145, read-out: GI50
  GI50: 3.5 nM
[1]; EKVX, read-out: GI50
  GI50: 18 nM
[1]; HCC-2998, read-out: GI50
  GI50: 15 nM
[1]; HCT-15, read-out: GI50
  GI50: 22 nM
[1]; HCT-116, read-out: GI50
  GI50: 18 nM
[1]; HL-60(TB), read-out: GI50
  GI50: 12 nM
[1]; HOP-62, read-out: GI50
  GI50: 12 nM
[1]; HOP-92, read-out: GI50
  GI50: 27 nM
[1]; HT29, read-out: GI50
  GI50: 34 nM
[1]; IGROV1 (OV) cell line
  NCI-60 screening: Log(GI50): -7.23
  NCI-60 screening: Log(RedIndex): 1.6
[1]; IGROV1 (OV) cell line, read-out: NCI-60 screening: Raw GI50
  GI50: 58 nM
[1]; IGROV1, read-out: GI50
  GI50: 58 nM
[1]; K-562, read-out: GI50
  GI50: 25 nM
[1]; KM12, read-out: GI50
  GI50: 44 nM
[1]; LOX IMVI, read-out: GI50
  GI50: 12 nM
[1]; M14, read-out: GI50
  GI50: 10 nM
[1]; MALME-3M, read-out: GI50
  GI50: 14 nM
[1]; MCF7, read-out: GI50
  GI50: 5.2 nM
[1]; MDA-MB-435, read-out: GI50
  GI50: 27 nM
[1]; MDA-MB-468, read-out: GI50
  GI50: 12 nM
[1]; MOLT-4, read-out: GI50
  GI50: 9.9 nM
[1]; NCI-H23, read-out: GI50
  GI50: 9.5 nM
[1]; NCI-H226, read-out: GI50
  GI50: 95 nM
[1]; NCI-H460 (LC) cell line
  NCI-60 screening: Log(GI50): -8.32
  NCI-60 screening: Log(RedIndex): 2.03
[1]; NCI-H460, read-out: GI50
  GI50: 4.8 nM
[1]; NCI-H522 (LC) cell line
  NCI-60 screening: Log(GI50): -7.91
  NCI-60 screening: Log(RedIndex): 2.14
[1]; NCI-H522 (LC) cell line, read-out: NCI-60 screening: Raw GI50
  GI50: 12 nM
[1]; NCI-H522, read-out: GI50
  GI50: 12 nM
[1]; OVCAR-3 (OV) cell line
  NCI-60 screening: Log(GI50): -7.28
  NCI-60 screening: Log(RedIndex): 1.6
[1]; OVCAR-3, read-out: GI50
  GI50: 53 nM
[1]; OVCAR-4 (OV) cell line
  NCI-60 screening: Log(GI50): -6.8
  NCI-60 screening: Log(RedIndex): 1.17
[1]; OVCAR-4 (OV) cell line, read-out: NCI-60 screening: Raw GI50
  GI50: 160 nM
[1]; OVCAR-4, read-out: GI50
  GI50: 160 nM
[1]; OVCAR-5 (OV) cell line
  NCI-60 screening: Log(GI50): -7.44
  NCI-60 screening: Log(RedIndex): 2.15
[1]; OVCAR-5, read-out: GI50
  GI50: 36 nM
[1]; OVCAR-8 (OV) cell line
  NCI-60 screening: Log(GI50): -8.06
  NCI-60 screening: Log(RedIndex): 2.28
[1]; OVCAR-8, read-out: GI50
  GI50: 8.6 nM
[1]; PC-3 (PR) cell line
  NCI-60 screening: Log(GI50): -7.61
  NCI-60 screening: Log(RedIndex): 2.11
[1]; PC-3 (PR) cell line, read-out: NCI-60 screening: Raw GI50
  GI50: 25 nM
[1]; PC-3, read-out: GI50
  GI50: 25 nM
[1]; RPMI-8226, read-out: GI50
  GI50: 34 nM
[1]; RXF 393 (RE) cell line
  NCI-60 screening: Log(GI50): -8.02
  NCI-60 screening: Log(RedIndex): 2.05
[1]; RXF 393 (RE) cell line, read-out: NCI-60 screening: Raw GI50
  GI50: 9.5 nM
[1]; RXF 393, read-out: GI50
  GI50: 9.5 nM
[1]; SF-268, read-out: GI50
  GI50: 15 nM
[1]; SF-295, read-out: GI50
  GI50: 9.7 nM
[1]; SF-539, read-out: GI50
  GI50: 10 nM
[1]; SK-MEL-5, read-out: GI50
  GI50: 13 nM
[1]; SK-MEL-28, read-out: GI50
  GI50: 15 nM
[1]; SK-OV-3 (OV) cell line
  NCI-60 screening: Log(GI50): -7.91
  NCI-60 screening: Log(RedIndex): 2.24
[1]; SK-OV-3 (OV) cell line, read-out: NCI-60 screening: Raw GI50
  GI50: 12 nM
[1]; SK-OV-3, read-out: GI50
  GI50: 12 nM
[1]; SN12C (RE) cell line
  NCI-60 screening: Log(GI50): -7.77
  NCI-60 screening: Log(RedIndex): 1.85
[1]; SN12C, read-out: GI50
  GI50: 17 nM
[1]; SNB-19, read-out: GI50
  GI50: 16 nM
[1]; SR, read-out: GI50
  GI50: 4 nM
[1]; SW-620, read-out: GI50
  GI50: 58 nM
[1]; T-47D, read-out: GI50
  GI50: 50 nM
[1]; TK-10 (RE) cell line
  NCI-60 screening: Log(GI50): -6.9
  NCI-60 screening: Log(RedIndex): 1.35
[1]; TK-10 (RE) cell line, read-out: NCI-60 screening: Raw GI50
  GI50: 130 nM
